# Where “and” joins values, the source holds several entries; their conditions need not be identical. Identical values can stand only once. Like-named read-outs stand apart in the source and are kept apart here.
# Columns and labels:
# in vitro [1] = details: human, hepg2-a16-cd81egfp cells
# in vitro [2] = details: human, HepG2-A16-CD81EGFP cells, uninfected
# [3] = system: Plasmodium falciparum Dd2 asexual blood stage parasites; assay: microbe, parasite or virus in culture; design: species or system Plasmodium falciparum Dd2 in human erythrocytes; single determination (one 11-point concentration-response curve); details: Plasmodium falciparum, DD2, Erythrocyte, 72 h; read-out: AC50
# [4] = system: T1, Plasmodium falciparum Dd2-attB-ScDHODH (transgenic line expressing yeast DHODH), asexual blood stages; assay: organism not typed; design: replicate k of 3 (each line is one of three independent assays; the three lines of one compound and parasite line follow each other); details: 72 h, n = 1; for AC50: read-out: Individual replicates / Log AC50 (converted)
# T1 construct: Dd2-attB-ScDHODH, the transgenic line that expresses yeast DHODH
# How it was run: (§1)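 The transgenic line overexpresses fumarate-dependent yeast DHODH, bypassing parasite mETC and ubiquinone-dependent parasite DHODH. A subset of compounds was run in three independent assays on both lines, and line differences were tested by two-sided Student's t-test.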
# [5] = system: P. berghei-ANKA-GFP-LucCON liver stage parasites in HepG2-A16-CD81EGFP cells; assay: P. berghei liver stage Pb-Luc assay, Method 1 (UCSD, 1536-well); type: cell-based, Plasmodium berghei; details: for activity at 1 µM / activity at 3 µM: 48 h, average of 2 wells, 1536-well plate; for activity at 1 µM: nominal 1 uM (10 mM stock), […] for 15 mM, 1.2 uM for 12 mM, 2 uM for 20 mM stock; for activity at 3 µM: nominal 3 uM (10 mM stock), 4.5 uM for 15 mM, 3.6 uM for 12 mM, 6 uM for 20 mM stock; on Pb-Luc signal, 1 uM, repeat 1: reference of the scale not given here; on Pb-Luc signal, 1 uM, repeat 2: reference of the scale not given here; on Pb-Luc signal, 1 uM, repeat 3: reference of the scale not given here; on Pb-Luc signal, 3 uM, repeat 1: reference of the scale not given here; on Pb-Luc signal, 3 uM, repeat 2: reference of the scale not given here; on Pb-Luc signal, 3 uM, repeat 3: reference of the scale not given here
# [6] = system: T2, Plasmodium falciparum Dd2-attB (parental line), asexual blood stages; assay: microbe, parasite or virus in culture; design: replicate k of 3 (each line is one of three independent assays; the three lines of one compound and parasite line follow each other); details: n = 1; for Individual replicates / Log AC50 (M): 72 h; for AC50: Plasmodium falciparum, DD2, 72 h, read-out: Individual replicates / Log AC50 (converted)
# T2 construct: Dd2-attB, the isogenic parental line
# How it was run: as §1
# HepG2-A16-CD81EGFP cells = details: average of 2 wells, repeat 2
smiles,measurement,setting,value
CN1CCN(c2ccc(NC(=O)c3ccc(-c4cccc([N+](=O)[O-])c4)o3)cc2)CC1 [MLS000663772],viability at 3 µM,in vitro [1]; % viability,107%
Cc1ccc(C)c2sc(N3CCN(C(=O)c4ccc([N+](=O)[O-])o4)CC3)nc12 [MLS001234268],viability at 3 µM,in vitro [1]; % viability,94.7%
CC(NCc1ccccc1O)C12CC3CC(CC(C3)C1)C2 (centres unmarked) [MLS001173343],viability at 3 µM,in vitro [1]; % viability,97.5%
COc1ccccc1[C@@]1(C)ON(c2ccccc2C(F)(F)F)C1=O [MLS002206613],viability at 3 µM,in vitro [1]; % viability,88.4%
Cc1ccc(Cl)cc1NC(=O)c1cc2ccccc2cc1O [MLS000738149],viability at 3 µM,in vitro [1]; % viability,74%
CCN1CCN(Cc2ccc(NC(=O)c3cc(NC(=O)c4cc(-c5ccc(OC)cc5)n[nH]4)cc(OC)c3)cc2C(F)(F)F)CC1 [MLS000911571],viability at 3 µM,in vitro [1]; % viability,97%
COc1ccccc1Nc1cnc2ccc(-c3ccc(OC)c(OC)c3)nn12 [NCGC00412573],viability at 3 µM,in vitro [1]; % viability,82.7%
Cc1ccc(CNCc2cc3c(C(C)(C)C)nn(-c4ccccc4)c3[nH]c2=O)cc1 [MLS000067257],viability at 3 µM,in vitro [1]; % viability,106%
Cc1ccc(-c2nn(-c3ccccc3)c3[nH]c(=O)c(CNCc4ccccc4)cc23)cc1 [MLS000067457],viability at 3 µM,in vitro [1]; % viability,95.4%
C[n+]1c2ccccc2nc2ccc(NCCO)cc21.[O-][Cl+3]([O-])([O-])[O-] [MLS001164888],viability at 3 µM,in vitro [1],97.2%
CCOC(=O)c1c(CN2CCN(c3ccccc3)CC2)oc2cc(Br)c(O)cc12 [MLS001198242],viability at 3 µM,in vitro [1]; % viability,90.6%
CC(C(=O)N1CCCC1)N1CCN(S(=O)(=O)c2ccc(C(C)(C)C)cc2)CC1 (centres unmarked) [MLS002156464],viability at 3 µM,in vitro [1]; % viability,92.8%
CC1CCN(c2ccc(C(=O)NCc3ccco3)cc2[N+](=O)[O-])CC1 [MLS000389854],viability at 3 µM,in vitro [1]; % viability,91.2%
Cc1cc(Nc2ccc(C(C)C)cc2)n2ncnc2n1 [MLS000116597],viability at 3 µM,in vitro [1]; % viability,96.1%
Cc1ccc(C(=O)Nc2nc(-c3ccccn3)cs2)cc1S(=O)(=O)N1CCOCC1 [MLS002157637],viability at 3 µM,in vitro [1]; % viability,58.9%
C=C(C)CSc1nc2sc3c(c2c(=O)n1-c1ccccc1)CCN(C)C3 [MLS001173616],viability at 3 µM,in vitro [1]; % viability,98.7%
CCOc1ccc(CCNC(=O)Nc2ccccc2)cc1OCC [MLS001197603],viability at 3 µM,in vitro [1]; % viability,99.4%
Cc1ccc(-c2cc(C(=O)Nc3ccc(S(=O)(=O)N4CC(C)OC(C)C4)cc3)[nH]n2)c(O)c1 (centres unmarked) [MLS000779230],viability at 3 µM,in vitro [1]; % viability,89.2%
COc1cc2ccccc2cc1C(=O)N1CCCC(C(F)(F)F)C1 (centres unmarked) [MLS002180647],viability at 3 µM,in vitro [1]; % viability,86%
O=C(CCCCCCC(=O)Nc1ccccc1)NO [NCGC00168085],viability at 3 µM,in vitro [1]; % viability,45.6%
CC(C)(C)N1C(=O)c2ccc(C(=O)Nc3ccc(-c4nc5ccccc5[nH]4)cc3)cc2C1=O [MLS000567491],viability at 3 µM,in vitro [1]; % viability,104%
CCOC(=O)c1c(CN(C)C)oc2cc(CN(C)C)c(O)c(CSc3ccccc3)c12 [MLS000038262],viability at 3 µM,in vitro [1]; % viability,104%
CC[C@@]1(c2ccccc2OC)ON(c2ccccc2C(F)(F)F)C1=O [MLS002206609],viability at 3 µM,in vitro [1]; % viability,92.6%
Cc1nn2c(c1-c1ccccc1-c1ccccc1)N(CC1CC1)CCC2 [NCGC00420435],viability at 3 µM,in vitro [1]; % viability,49.8%
CCOC(=O)c1nnn(-c2nonc2N)c1-c1ccc(Br)cc1 [MLS000727795],viability at 3 µM,in vitro [1]; % viability,96.5%
Clc1ccc2c(N/N=C/c3ccc(Br)cc3)ccnc2c1 [MLS000589586],viability at 3 µM,in vitro [1]; % viability,104%
CCOC(=O)c1nc2cc3n(c(CC(C)C)c-2c1C)CC(C)=C3C [MLS000594428],viability at 3 µM,in vitro [1]; % viability,105%
Oc1c(CN2CCN(c3ccccn3)CC2)cc(Cl)c2cccnc12 [NCGC00055619],viability at 3 µM,in vitro [1]; % viability,77.4%
Oc1ccccc1Nc1nc(NCc2ccccc2)c2ccccc2n1 [MLS000693415],viability at 3 µM,in vitro [1]; % viability,90.9%
CCCN1C(CC(C)C)=N[S+](=O)([O-])c2cc(NC(=O)c3cccs3)ccc21 [NCGC00473217-01],"viability at 48 h, 1 µM",in vitro [2],105%
same,"viability at 48 h, 3 µM",in vitro [2],106%
same,AC50,[3],0.335 µM
same,Individual replicates / Log AC50 (M),[4],-6.2986 Log AC50 (M)
same,AC50,[4],0.71 µM
same,Max Resp (signal direction of the dose response),"[5]; Method 1, Decrease = decreasing P. berghei viability with dose, Increase = increasing signal, Inactive = no dose response",Decrease
same,AC50,"[5]; Method 1, Hill fit, 50% of maximum activity response, read-out: AC50",3.16 nM
same,Log AC50 (M),"[5]; Method 1, log10 of molar AC50 from Hill fit",-8.500 M
same,activity at 1 µM,"[5]; Plasmodium berghei, repeat 1, read-out: Pb-Luc signal, 1 uM, repeat 1",8.62%
same,activity at 1 µM,"[5]; Plasmodium berghei, repeat 2, read-out: Pb-Luc signal, 1 uM, repeat 2",7.89%
same,activity at 1 µM,"[5]; Plasmodium berghei, repeat 3, read-out: Pb-Luc signal, 1 uM, repeat 3",4.31%
same,activity at 3 µM,"[5]; Plasmodium berghei, repeat 1, read-out: Pb-Luc signal, 3 uM, repeat 1",2.42%
same,activity at 3 µM,"[5]; Plasmodium berghei, repeat 2, read-out: Pb-Luc signal, 3 uM, repeat 2",3.74%
same,activity at 3 µM,"[5]; Plasmodium berghei, repeat 3, read-out: Pb-Luc signal, 3 uM, repeat 3",3.33%
same,AC50,"[5]; Plasmodium berghei, Method 1, Hill fit, 50% of maximum activity response, read-out: AC50",2.82 nM
same,AC50,"[5]; Plasmodium berghei, Method 1, log10 of molar AC50 from Hill fit, read-out: Log AC50 (converted)",2.82 nM
same,Individual replicates / Log AC50 (M),[6],-7.2986 Log AC50 (M) and -6.9486 Log AC50 (M) and -6.9986 Log AC50 (M)
same,"HepG2 viability signal, 1 uM, repeat 2","HepG2-A16-CD81EGFP cells; nominal 1 uM (10 mM stock), […] for 15 mM, 1.2 uM for 12 mM, 2 uM for 20 mM stock",104.11%
same,"HepG2 viability signal, 3 uM, repeat 2","HepG2-A16-CD81EGFP cells; nominal 3 uM (10 mM stock), 4.5 uM for 15 mM, 3.6 uM for 12 mM, 6 uM for 20 mM stock",105.41%
Oc1ccc(CNc2ccc(C(F)(F)F)cc2Cl)c2cccnc12 [NCGC00183375-01],AC50,[3],10.6 µM
same,Individual replicates / Log AC50 (M),[4],-5.2486 Log AC50 (M) and -5.0986 Log AC50 (M)
same,AC50,[4],5.03 µM
same,Individual replicates / Log AC50 (M),[6],-5.2986 Log AC50 (M) and -5.3486 Log AC50 (M)
same,AC50,[6],5.03 µM
CC(c1ccccc1)N1CCN(c2cnc3c(O)ccc(C(=O)O)c3c2)CC1 (centres unmarked) [NCGC00247745-01],Individual replicates / Log AC50 (M),[4],-4.7986 Log AC50 (M) and -4.7486 Log AC50 (M)
same,AC50,[4],17.8 µM
same,Individual replicates / Log AC50 (M),[6],-4.8486 Log AC50 (M) and -4.7486 Log AC50 (M)
same,AC50,[6],15.9 µM
CCCCN1CCCc2cc(CN(CCCN3CCOCC3)C(=O)Nc3ccc(CC)cc3)ccc21 [NCGC00140595-02],Individual replicates / Log AC50 (M),[4],-5.0486 Log AC50 (M)
same,AC50,[4],7.97 µM
same,Individual replicates / Log AC50 (M),[6],-5.0986 Log AC50 (M)
same,AC50,[6],7.97 µM
Oc1ccc(-c2ccccc2F)c2cccnc12 [NCGC00184901-01],Individual replicates / Log AC50 (M),[4],-4.8486 Log AC50 (M) and -4.7986 Log AC50 (M)
same,AC50,[4],14.2 µM
same,Individual replicates / Log AC50 (M),[6],-4.8486 Log AC50 (M) and -4.8986 Log AC50 (M)
same,AC50,[6],15.9 µM
O=C(c1cccc(-c2cc(O)c3ncccc3c2)c1)N1CCCCC1 [NCGC00244533-01],Individual replicates / Log AC50 (M),[4],-5.1486 Log AC50 (M) and -4.9486 Log AC50 (M)
same,AC50,[4],7.1 µM
same,Individual replicates / Log AC50 (M),[6],-5.0486 Log AC50 (M) and -5.0986 Log AC50 (M)
same,AC50,[6],6.33 µM
O=C(O)c1ccnc(-n2ncc(C(OCCN3CCCCC3)c3ccc(Cl)cc3)c2-c2ccccc2)c1 (centres unmarked) [NCGC00487049-01],Individual replicates / Log AC50 (M),[4],-4.7486 Log AC50 (M)
same,AC50,[4],15.9 µM
same,Individual replicates / Log AC50 (M),[6],-4.7986 Log AC50 (M) and -4.8486 Log AC50 (M)
same,AC50,[6],15.9 µM
CN(C)CCNC(=O)c1cccc(-c2cc(O)c3ncccc3c2)c1 [NCGC00244526-01],Individual replicates / Log AC50 (M),[4],-4.7986 Log AC50 (M)
same,AC50,[4],17.8 µM
same,Individual replicates / Log AC50 (M),[6],-5.0986 Log AC50 (M) and -4.9486 Log AC50 (M)
same,AC50,[6],14.2 µM
O=[S+]([O-])(Nc1ccc(O)c2ncccc12)c1ccccc1F [NCGC00184887-01],AC50,[4],14.2 µM
same,Individual replicates / Log AC50 (M),[6],-5.0986 Log AC50 (M) and -5.1486 Log AC50 (M)
same,AC50,[6],14.2 µM
Cc1cccc(CN2CCCn3nc(C)c(-c4ccccc4Oc4ccccc4)c32)n1 [NCGC00499720-01],Individual replicates / Log AC50 (M),[4],-4.7986 Log AC50 (M)
same,AC50,[4],15.9 µM
same,Individual replicates / Log AC50 (M),[6],-4.7486 Log AC50 (M)
same,AC50,[6],20 µM
CN1CCN(CCCNC(=O)c2cccc(-c3cc(O)c4ncccc4c3)c2)CC1 [NCGC00247740-01],Individual replicates / Log AC50 (M),[4],-4.7486 Log AC50 (M) and -4.7986 Log AC50 (M)
same,AC50,[4],17.8 µM
same,Individual replicates / Log AC50 (M),[6],-4.7986 Log AC50 (M) and -4.7486 Log AC50 (M)
same,AC50,[6],15.9 µM
Oc1cc(-c2ccc(CN3CCOCC3)cc2)cc2cccnc12 [NCGC00247750-01],Individual replicates / Log AC50 (M),[4],-5.2986 Log AC50 (M) and -5.1486 Log AC50 (M)
same,AC50,[4],5.03 µM
same,Individual replicates / Log AC50 (M),[6],-5.2986 Log AC50 (M) and -5.3986 Log AC50 (M)
same,AC50,[6],5.03 µM

# From publication PMC7822874, “Chemoprotective antimalarials identified through quantitative high-throughput screening of Plasmodium blood and liver stage parasites” (Scientific Reports, 2021)
